Results from ChEMBL document CHEMBL1201862, “PubChem BioAssay data set” (2004).
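These data come from cells grown in 96-well plates and exposed to compound for 48 hours at five concentrations. GI50 = concentration required for 50% inhibition of growth.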 Active and inactive are the calls of the source. Cut-off read from the data, not from the text of the source: active = GI50 up to about 1.1 µM and inactive = higher.

Key:
Assay in all cases: NCI anticancer screen, dose series, 48 h
TK-10 = system: TK-10
MDA-MB-231 = system: MDA-MB-231
UACC-62 = system: UACC-62
EKVX = system: EKVX
KM12 = system: KM12
NCI-H23 = system: NCI-H23
NCI-H460 = system: NCI-H460
MCF7 = system: MCF7
SK-MEL-28 = system: SK-MEL-28
OVCAR-4 = system: OVCAR-4
BT-549 = system: BT-549
MDA-MB-435 = system: MDA-MB-435
COLO 205 = system: COLO 205
SF-539 = system: SF-539
CAKI-1 = system: CAKI-1
MDA-N = system: MDA-N
HOP-62 = system: HOP-62
OVCAR-3 = system: OVCAR-3
SK-OV-3 = system: SK-OV-3
Malme-3M = system: Malme-3M

Row | Structure (SMILES) | GI50 (TK-10) | GI50 (MDA-MB-231) | GI50 (UACC-62) | GI50 (EKVX) | GI50 (KM12) | GI50 (NCI-H23) | GI50 (NCI-H460) | GI50 (MCF7) | GI50 (SK-MEL-28) | GI50 (OVCAR-4) | GI50 (BT-549) | GI50 (MDA-MB-435) | GI50 (COLO 205) | GI50 (SF-539) | GI50 (CAKI-1) | GI50 (MDA-N) | GI50 (HOP-62) | GI50 (OVCAR-3) | GI50 (SK-OV-3) | GI50 (Malme-3M)
1 | C1CNCCNCCN1 | > 100 µM (inactive) | > 100 µM (inactive) | > 100 µM (inactive) | > 100 µM (inactive) | > 100 µM (inactive) | > 100 µM (inactive) | > 100 µM (inactive) | > 100 µM (inactive) | > 100 µM (inactive) | > 100 µM (inactive) | > 100 µM (inactive) | > 100 µM (inactive) | > 100 µM (inactive) | 26.2 µM (inactive) | > 100 µM (inactive) | > 100 µM (inactive) | > 100 µM (inactive) | > 100 µM (inactive) | – | –
2 | NC(CSC(c1ccccc1)(c1ccccc1)c1ccccc1)C(=O)O (centres undefined) | 19.9 µM (inactive) | 1.42 µM (inactive) | 0.685 µM (active) | 1.19 µM (inactive) | 0.962 µM (active) | 2.29 µM (inactive) | 0.658 µM (active) | – | 10 µM (inactive) | 7.5 µM (inactive) | 0.975 µM (active) | 0.333 µM (active) | 0.665 µM (active) | 0.396 µM (active) | 4.41 µM (inactive) | 1.08 µM (active) | 1.43 µM (inactive) | 1.7 µM (inactive) | 0.634 µM (active) | 2.17 µM (inactive)
3 | O=c1c2cc([N+](=O)[O-])cnc2sn1-c1ccc(Oc2ccccc2)cc1 | > 100 µM (inactive) | 22.1 µM (inactive) | 41.7 µM (inactive) | 70.6 µM (inactive) | 78.5 µM (inactive) | 36.4 µM (inactive) | 74.1 µM (inactive) | 35.3 µM (inactive) | 22.4 µM (inactive) | 25.8 µM (inactive) | 52.8 µM (inactive) | 34 µM (inactive) | > 100 µM (inactive) | 23.3 µM (inactive) | – | 78 µM (inactive) | 34.2 µM (inactive) | 36 µM (inactive) | 19.8 µM (inactive) | 21.7 µM (inactive)
4 | N/C(=N\c1ccccc1)c1ccccc1N | > 100 µM (inactive) | > 100 µM (inactive) | > 100 µM (inactive) | > 100 µM (inactive) | > 100 µM (inactive) | > 100 µM (inactive) | > 100 µM (inactive) | > 100 µM (inactive) | 19.6 µM (inactive) | > 100 µM (inactive) | > 100 µM (inactive) | > 100 µM (inactive) | > 100 µM (inactive) | – | > 100 µM (inactive) | > 100 µM (inactive) | > 100 µM (inactive) | > 100 µM (inactive) | > 100 µM (inactive) | –
5 | COc1ccc(NC(=O)CSC(=O)c2ccccc2)c(SCCSSCCSc2cc(OC)ccc2NC(=O)CSC(=O)c2ccccc2)c1 | > 100 µM (inactive) | – | > 100 µM (inactive) | 72.9 µM (inactive) | 8.07 µM (inactive) | 73.3 µM (inactive) | 4.62 µM (inactive) | 66.5 µM (inactive) | – | 6.44 µM (inactive) | > 100 µM (inactive) | > 100 µM (inactive) | 11 µM (inactive) | > 100 µM (inactive) | 18.2 µM (inactive) | > 100 µM (inactive) | > 100 µM (inactive) | 9.57 µM (inactive) | 41.5 µM (inactive) | 69.3 µM (inactive)
6 | Cc1cc2c(cc1Cl)SC(NNC(=O)c1ccccc1)=NS2(=O)=O | > 10 µM (inactive) | > 10 µM (inactive) | > 10 µM (inactive) | > 10 µM (inactive) | > 10 µM (inactive) | > 10 µM (inactive) | > 10 µM (inactive) | 2.21 µM (inactive) | > 10 µM (inactive) | > 10 µM (inactive) | > 10 µM (inactive) | > 10 µM (inactive) | > 10 µM (inactive) | > 10 µM (inactive) | > 10 µM (inactive) | – | > 10 µM (inactive) | > 10 µM (inactive) | > 10 µM (inactive) | > 10 µM (inactive)
7 | CC12CP(=O)(O)CC1C2(Cl)Cl (centres undefined) | > 100 µM (inactive) | > 100 µM (inactive) | > 100 µM (inactive) | > 100 µM (inactive) | > 100 µM (inactive) | > 100 µM (inactive) | > 100 µM (inactive) | > 100 µM (inactive) | > 100 µM (inactive) | > 100 µM (inactive) | > 100 µM (inactive) | > 100 µM (inactive) | > 100 µM (inactive) | > 100 µM (inactive) | > 100 µM (inactive) | – | > 100 µM (inactive) | > 100 µM (inactive) | > 100 µM (inactive) | > 100 µM (inactive)
8 | COc1ccc(-c2cc(-c3ccc(Cl)cc3)n(C3OC(CO)C(O)C(O)C3O)c(=S)c2C#N)cc1 (centres undefined) | 30.3 µM (inactive) | 37.5 µM (inactive) | > 100 µM (inactive) | – | 49.9 µM (inactive) | – | 13 µM (inactive) | > 10 µM (inactive) | 72.8 µM (inactive) | 30 µM (inactive) | 35.2 µM (inactive) | 75.5 µM (inactive) | 51.1 µM (inactive) | > 100 µM (inactive) | – | > 100 µM (inactive) | 57.8 µM (inactive) | – | > 100 µM (inactive) | –
9 | Oc1ccc(C(O)(c2ccccc2)c2ccccc2)c2ccccc12 | 2.59 µM (inactive) | 1.79 µM (inactive) | 1.22 µM (inactive) | 10.4 µM (inactive) | 2.07 µM (inactive) | 2.79 µM (inactive) | 2.72 µM (inactive) | 4.15 µM (inactive) | 15 µM (inactive) | 5.75 µM (inactive) | 3.85 µM (inactive) | 1.07 µM (active) | 3.44 µM (inactive) | 2 µM (inactive) | 1.82 µM (inactive) | – | 2.3 µM (inactive) | 1.42 µM (inactive) | 3.25 µM (inactive) | 10.2 µM (inactive)
10 | COC(=O)[C@]1(Cc2ccc3ccccc3c2)CCCCCCN1C(=O)c1ccccc1 | > 36.6 µM (inactive) | > 36.4 µM (inactive) | > 35.6 µM (inactive) | > 27.7 µM (inactive) | > 34.1 µM (inactive) | > 29.3 µM (inactive) | > 34.4 µM (inactive) | > 32.2 µM (inactive) | > 37.2 µM (inactive) | 12.7 µM (inactive) | > 39.5 µM (inactive) | > 37.2 µM (inactive) | 11.4 µM (inactive) | > 39.6 µM (inactive) | – | > 38 µM (inactive) | > 30.1 µM (inactive) | > 24.9 µM (inactive) | > 49.1 µM (inactive) | > 38.5 µM (inactive)
11 | CC(CC(N)C(=O)O)C(=O)O (centres undefined) | > 100 µM (inactive) | > 100 µM (inactive) | > 100 µM (inactive) | > 100 µM (inactive) | > 100 µM (inactive) | > 100 µM (inactive) | > 100 µM (inactive) | – | > 100 µM (inactive) | > 100 µM (inactive) | > 100 µM (inactive) | > 100 µM (inactive) | – | – | > 100 µM (inactive) | > 100 µM (inactive) | > 100 µM (inactive) | > 100 µM (inactive) | – | > 100 µM (inactive)
